Source: PMC4017264 (Molecular Cell, 2014)

Legend:
[1] = test system: HOIP PUB domain (15N HOIP 1-184); experiment: NMR binding (chemical shift perturbation) to 15N-labeled HOIP PUB domain; set-up: species or system Human; conditions: 15N BEST-TROSY NMR, 100 μM 15N HOIP 1-184, 20 mM phosphate pH 6.8, 50 mM NaCl, 2 mM DTT, 298K
Procedure: Standard triple-resonance experiments (HNCA, HN(CO)CA, HNCACB, CBCA(CO)NH, and HBHA(CO)NH) were acquired for the assignment of HOIP resonances. Constant time ^13C and ^13C-HSQC were acquired for the methyl and aromatic regions. In addition, (HB)CB(CGCD)HD and (HB)CB(CGCDCE)HE experiments coupled the Cβ of tyrosine resonances to the Hδ and Hε positions of the tyrosine ring, respectively.
Fluorescence polarization binding assays
10 µl of 100 nM FITC-Ahx peptides of either OTULIN (49-67) or p97 (797-806) were aliquoted into a 384-well low volume plate (Corning). Serial dilutions of HOIP PUB into FP assay buffer (20 mM Tris pH 7.4, 100 mM NaCl, 1 mM DTT) were prepared and 10 µl of this was aliquoted to FITC-Ahx peptide-containing wells. Fluorescence polarization was recorded on a PheraStar plate reader (BMG Labtech) using an optics module with $ex = 485 nm and $em = 520 nm. To derive binding constants (KD), polarization values were fitted to a one-site binding model using Graphpad Prism 5.
Nuclear Magnetic Resonance Spectroscopy
Uniformly labeled 15N or 13C, 15N samples of HOIP were prepared following growth in 2M9 medium supplemented with either 15N NH4Cl or 13C glucose.
Proteins were purified as described above and all samples were exchanged into NMR sample buffer (20 mM Na2HPO4/NaH2PO4 pH 6.8, 50 mM NaCl, 2 mM DTT). Lyophilized OTULIN and p97 PIM peptides were reconstituted in NMR sample buffer and the pH adjusted to pH 6.8 prior to use. NMR data were acquired at 298K on Bruker Avance III 600 MHz and Avance2+ 700
MHz spectrometers, equipped with cryogenic triple resonance TCI probes.
Standard triple resonance experiments (HNCA, HN(CO)CA, HNCACB, CBCA(CO)NH, HBHA(CO)NH) were acquired for the assignment of backbone
HOIP resonances. In addition, constant-time (ct) 13C and 13C-HSQC were acquired for the methyl and aromatic regions. For assignment of the H",H# resonances of HOIP tyrosines, (HB)CB(CGCD)HD and (HB)CB(CGCDCE)HE spectra were acquired, which coupled the C$ position of the tyrosine resonances to the H"/H# position of the tyrosine ring respectively. […]

HOIP 1-184 = experiment: analytical size-exclusion chromatography binding; set-up: species or system Human; conditions: Superdex 75; 30 µM HOIP, 25 µM OTULIN, 20 mM Tris pH 7.4, 150 mM NaCl, 2 mM DTT, room temperature 15 min
Procedure: All mutations were generated by site directed mutagenesis using the QuikChange method with KOD HotStart DNA polymerase.
Protein expression and purification
HOIP PUB domain constructs were expressed in Rosetta2 (DE3) pLacI cells.
Cells were grown at 30 °C in 2 xTY medium supplemented with 30 µg/ml kanamycin and 34 µg/ml chloramphenicol to an OD600 of 0.8. The culture was cooled to 18 °C prior to overnight induction with 400 µM IPTG. Cells were resuspended and lysed by sonication in lysis buffer (20 mM Tris pH 7.4, 300 mM NaCl, 50 mM imidazole, 2 mM #-mercaptoethanol, lysozyme, DNaseI
(Sigma) and protease inhibitor cocktail (Roche)). HOIP was purified by immobilized metal affinity chromatography using a HisTrap column (GE Life Sciences). The His6-tag was cleaved by overnight incubation with 3C protease. The protein was buffer exchanged into 20 mM Tris pH 8.5, 2 mM DTT and purified further by anion exchange chromatography (ResourceQ, GE Life Sciences). Eluted HOIP was then subjected to size exclusion chromatography (HiLoad 16/60 Superdex 75, GE Life Sciences) in buffer containing 20 mM Tris pH 8.5, 150 mM NaCl, 2 mM DTT. The resultant fractions were judged to be 99% pure following SDS-PAGE analysis and flash frozen. OTULIN was expressed and purified according to (Keusekotten et al., […]
kind gift from Mark Allen (MRC LMB).
Analytical size exclusion chromatography binding studies […]

[2] = test system: endogenous LUBAC (HOIP, HOIL-1, SHARPIN); experiment: coimmunoprecipitation of endogenous LUBAC components with HA-tagged OTULIN; type: cell-based; conditions: HA-OTULIN variants in HEK293T cells, anti-HA IP, western blot
Procedure: Transfected HEK293T or U2OS and NOD2 cells were lysed in the presence of protease and phosphatase inhibitors. Clarified lysates were incubated overnight with anti-V5 and anti-HA-agarose resin. […]
(§1) siOTULIN: […], siMM […]
Immunoprecipitation of HOIP-V5 and HA-OTULIN
HEK293T or U2OS/NOD2 cells were transfected as indicated. The cells were lysed in IP buffer buffer (25 mM HEPES pH 7.4, 150 mM KCl, 2 mM MgCl2, 1 mM EGTA, 0.5% (v/v) Triton X-100) supplemented with 5 mM NEM (Sigma-Aldrich), cOmplete protease inhibitor cocktail (Roche) and PhosSTOP
(Roche). After 30 minutes on ice, the lysates were cleared by centrifugation and incubated overnight at 4 °C with anti-V5-agarose resin or anti-HA-agarose resin. The beads were washed four times in ice-cold IP buffer and the precipitated material was eluted with 0.2 M glycine, pH 2.5. […]

[3] = test system: LUBAC-induced NFκB activity; experiment: NFκB luciferase reporter assay (LUBAC-induced); type: cell-based; conditions: HEK293T cells; for inhibition of NFκB activity induced by HOIP PIM pocket mutants (N102D, Y82A) + HOIL-1 (in words): compared with wild-type HOIP
Procedure: Cells were cotransfected with the NFκB luciferase reporter construct pBIIXluc and the thymidine kinase-renilla luciferase construct in addition to other vectors used in the study. After 24 hr, cells were lysed in passive lysis buffer (Promega), and luciferase activity was recorded. Protein expression levels were determined by western blotting of cell lysates. […]
as §1
Luciferase reporter assays
Cells were co-transfected with the NF!B luciferase reporter construct pBIIXluc and the thymidine kinase-renilla luciferase construct to enable normalization of transfection efficiency. Cells were co-transfected with additional plasmids as indicated. After 24 h cells were lysed in 75 %L passive lysis buffer (Promega) and luciferase activity was measured on a FLUOstar Omega
Microplate Reader (BMG LABTECH GmbH, Offenburg, Germany) using the DualLuciferase ® Assay System (Promega) according to the manufacturer’s instructions. Protein expression levels were determined by SDS-PAGE and Western blotting of cell lysates as indicated. The data shown represents mean ± SEM. A two-tailed Student´s t -test was applied to evaluate statistical

[4] = test system: HOIP (Met1-linked polyUb); experiment: HOIP autoubiquitination, purification of endogenous Met1-polyUb conjugates (M1-SUB pulldown); type: cell-based; conditions: U2OS/NOD2 cells, ectopic OTULIN variants, basal, identical with L18-MDP or TNF, immunoblot
From the text: Antibodies and affinity resin
The following antibodies and reagents were used according to the manufacturers’ instructions: anti-HA-agarose resin (A2095), anti-V5-agarose resin (A7345) and rabbit polyclonal anti-HOIP/RNF31 (SAB2102031, Sigma-Aldrich), rat monoclonal anti-HA (#11867423991, Roche Diagnostics, Burgess Hill, UK), mouse monoclonal anti-ubiquitin (IMG-5021, Imgenex, San Diego, CA), rabbit polyclonal anti-SHARPIN (#14626-1-AP, ProteinTech, Chicago, IL), rabbit polyclonal anti-RBCK1/HOIL-1 (NBP1-88301, Novus Biologicals, Littleton, CO), mouse monoclonal anti-V5 (MCA1360, AbD Serotec, Kidlington, UK), mouse monoclonal anti-$-actin (MAB1501, Chemicon, Millipore, Billerica, MA), rabbit polyclonal anti-HOIL-1, rabbit polyclonal anti-HOIP/RNF31
(Sigma), mouse monoclonal anti-p97 (Thermo Scientific). The
Fam105B/OTULIN antibody was previously described (Keusekotten et al., 2013). […]
HEK293ET, RPE1 and U2OS cells were collected, washed with PBS and lysed on ice for 30 minutes in SEC cell extraction buffer (150 mM NaCl, 50 mM Tris-HCl pH 7.4, 1 mM MgCl2, 1 mM DTT, 0.3% NP40, protease and (Roche)). […] In total 3.1 mg protein extract was analyzed on a Superdex 200 10/300 GL column (GE Life Sciences). […]

[5] = test system: HOIP (Met1-linked polyUb); conditions: overexpression of catalytically inactive OTULIN, ref Fiil et al., 2013, Keusekotten et al.; cited from earlier work
From the text: So far, the cellular consequences of OTULIN-LUBAC interaction are unclear. […] We wondered whether this depended on the formation of the OTULIN-HOIP complex or whether OTULIN would act in trans on the complex. When coexpressed with HOIL-1, HOIP PUB binding mutants autoubiquitinated in cells exp ...

OTULIN: full-length OTULIN (aa 1–352), Met1-specific deubiquitinase
binding / chemical shift perturbations of HOIP PUB domain (in words) [1]: pattern of HOIP CSPs was identical | binding to HOIP aa 1-184 (in words) (HOIP 1-184): able to bind | coimmunoprecipitation of endogenous LUBAC components (in words) [2]: coimmunoprecipitated all proteins from the endogenous LUBAC complex | inhibition of NFκB activity induced by wild-type LUBAC (in words) ([3]; HOIL-1 + wild-type HOIP): abrogated NFκB activity | inhibition of NFκB activity induced by HOIP PIM pocket mutants (N102D, Y82A) + HOIL-1 (in words) [3]: less effective in inhibiting activity | inhibition of NFκB activity induced by HOIP PIM pocket mutants (N102D, Y82A) + HOIL-1 (in words) ([3]; listed as wild-type OTULIN): reduced the ability of OTULIN to antagonize LUBAC-induced NFκB activity

OTULIN C129A: catalytically inactive OTULIN C129A mutant (CA)
HOIP autoubiquitination with Met1-linked polyUb (in words) [4]: led to extensive HOIP ubiquitination | HOIP autoubiquitination with Met1-linked polyUb (in words), previously shown [5]: lead to the autoubiquitination of HOIP with Met1-linked polyUb chains
